Source: BigSolDB 2.1

Cc1cnc(NC(=O)C2=C(O)c3ccccc3S(=O)(=O)N2C)s1
solubility (mole fraction)
Details | 293.15 K | 298.15 K | 303.15 K | 308.15 K | 313.15 K
in transcutol | 0.0012 | 0.0013 | 0.0014 | 0.00151 | 0.00165
in water | 1.09e-06 | 1.14e-06 | 1.19e-06 | 1.26e-06 | 1.33e-06
